Assay results from patent publication US9717719B2, “Treatment, prevention, and reversal of alcohol-induced liver disease” (Rhode Island Hospital, priority 2006, dated 2017).
“Also recorded” adds a separate entry of the source.

Tests used:
[1] = system: Long-Evans male rats fed a 37% ethanol liquid diet; assay: Liver regeneration by BrdU incorporation after 2/3 partial hepatectomy in chronic ethanol fed rats; type: in vivo, rat; conditions: for increase in BrdU labeling: 24 hours after 2/3 hepatectomy, compared to ethanol fed animals; for liver regeneration (BrdU incorporation): after 2/3 hepatectomy
Method: An isocaloric (sucrose substituted for ethanol) diet was administered to pair fed control animals. After three weeks, both groups of rats were injected with either PPAR-α, γ, or δ agonists or saline as a control. […] The […] were given IP injections twice a week. At 6 weeks, the animals underwent 2/3 partial hepatectomy. The removed liver was used for histology, measurement of lipid peroxidation, DNA damage and insulin/IGF signaling as described below. Following ⅔ hepatectomy, the liver remnants were harvested 18, 24, 30 and 48 hours later to assess the regenerative response. To do this, animals were injected IP with BrdU 2 hours before harvest to measure its incorporation into hepatic nuclei as an index of DNA synthesis.

[2] = system: IGF-II receptor; assay: Saturation binding assay in liver of treated rats, IGF-II receptor binding; type: in vivo, rat; conditions: pooled liver of 8 rats
Description: Adult male (˜200-250 g) Long Evans rats (Harlan Sprague Dawley, Inc., Indianapolis, Ind.) were pair-fed with isocaloric liquid diets (BioServ, Frenchtown, N.J.) containing 0% (control) or 37% ethanol by caloric content (9.2% v/v) for 8 weeks. During the week prior to initiating the experiment, rats were adapted to the ethanol-containing diets by sequentially feeding them for two days each with diets containing 8%, 17%, 24%, and then 37% ethanol. Chow fed control rats were also studied. Rats were monitored daily to ensure equivalent food consumption and maintenance of body weight. During the last 3 weeks of the experiment while being maintained on either the 0% or 37% ethanol-containing liquid diets, rats in both groups were administered twice weekly (Mondays and Thursdays) intra-peritoneal (i.p.) injections of vehicle (saline), a PPAR-α (GW7647; 25 μg/kg), PPAR δ (L-165,041; 2 μg/kg), or PPAR-γ (F-L-Leu; 20 μg/kg) agonist (CalBiochem, Carlsbad, Calif.). At the conclusion of the experiment, rats were anesthetized with vaporized isofluorane (SurgiVet, Inc. Waukesha, Wis.), and liver and blood were harvested for analysis. Liver tissue samples were immersion fixed in Histochoice (Amresco Corp., Solon, Ohio) and embedded in paraffin. Adjacent histological sections were stained with Hematoxylin and Eosin or Gomori's Trichrome and examined under code. In addition, liver tissue samples were snap-frozen in a dry ice methanol bath and then stored at −80° C. for later mRNA and protein studies. Throughout the experiment, rats were housed under humane conditions and kept on a 12-hour light/dark cycle with free access to food. All experiments were performed in accordance with protocols that conform to guidelines established by the National Institutes of Health and were approved by Institutional Animal Care and Use Committee at the Lifespan-Rhode Island Hospital.
Saturation binding studies were used to determine if the PPAR agonist treatments improved ethanol-impaired insulin and IGF receptor binding in liver. Fresh frozen liver tissue was homogenized in 5 volumes of lysis buffer containing 50 mM Tris-HCl, pH 7.5, 1% NP-40, 150 mM NaCl, 1 mM EDTA, 2 mM EGTA, plus protease (1 mM PMSF, 0.1 mM TPCK, 1 μg/ml aprotinin, 1 μg/ml pepstatin A, 0.5 μg/ml leupeptin, 1 mM NaF, 1 mM Na4P2O7) and phosphatase (2 mM Na3VO4) inhibitors. Protein concentration was determined using the bicinchoninic acid (BCA) assay (Pierce, Rockford, Ill.). Exploratory studies determined the optimum amounts of protein and concentrations of radiolabeled ligand required to achieve 20% specific binding. Insulin receptor binding was measured using 100 μg protein per assay tube. IGF-I binding assays required 25 μg protein per sample, and IGF-II receptor binding assays required 10 μg protein per reaction.
To generate the binding curse, samples from 8 rats per group were pooled in equivalent ratios and protein concentrations were adjusted to be identical for each group. For total binding, duplicate samples were incubated in 100 μl reactions containing binding buffer (100 mM HEPES, pH 8.0, 118 mM NaCl, 1.2 mM MgSO4, 8.8 mM dextrose, 5 mM KCl, 1% bovine serum albumin) and 0.0031 to 1 μCi/ml of [^125I] (2000 Ci/mmol) insulin, IGF-I, or IGF-II. For non-specific binding, duplicate samples were identically prepared but with the addition of 0.1 μM unlabeled (cold) ligand. Incubations were carried out for 16 hours at 4° C. in non-binding 96 well plates (Corning Incorporated Life Science, Lowell, Mass.). Reactions were vacuum harvested (Corning, Lowell, Mass.) onto 96-well GF/C filter plates that had been presoaked for 30 minutes in 0.33% polyethyleneimine (PEI) solution. The filters were washed 5 times with buffer containing 50 mM buffer [4-2-hydroxyethyl)-1-piperazine-ethanesulfonic acid (HEPES), pH 7.4, 500 mM NaCl, and 0.1% BSA. […]

Row | SMILES | increase in BrdU labeling [1] | liver regeneration (BrdU incorporation) [1] | BMAX ± S.E.M. ([2]; Control + agonist) | BMAX ± S.E.M. ([2]; Ethanol + agonist)
1 | CC(C)(Sc1ccc(CCN(CCCCC2CCCCC2)C(=O)NC2CCCCC2)cc1)C(=O)O [PPAR-α, GW7647] | approximately 20% | more modest beneficial effects | 40.27 ± 3.28 | 28.88 ± 6.20
2 | CC(C)C[C@H](NC(=O)OCC1c2ccccc2-c2ccccc21)C(=O)O [PPAR-γ, F-L-Leu] | approximately 20% |  | 25.20 ± 2.04 | 22.56 ± 4.43
3 | CCCc1c(OCCCOc2ccc(OCC(=O)O)cc2)ccc(C(C)=O)c1O [PPAR-δ, L-165,041] |  | essentially restored liver regeneration to levels seen in normal control animals; also recorded: returns the liver regenerative response to normal levels; also recorded: more modest beneficial effects | 29.01 ± 1.99 | 51.50 ± 13.53
